Test results: US20240228512A1, “ACYCLIC OXAZEPINE COMPOUNDS COMPRISING A 6-AZA MOIETY AND USES THEREOF” (Genentech, Inc., priority 2022, published 2024)
Where two headings read alike, the source gives them in different places.

Key:
[1] = tested on: SW620 PERK; assay: SW620 PERK assay; type: cell-based
[2] = target: recombinant human KRAS wild type (SOS1-mediated nucleotide exchange) (Homo sapiens (Human), UniProt P01116); assay: KRAS biochemical assay, BODIPY-GDP exchange TR-FRET (WT-GDP HTRF)
Method: [Worded in the source for another variant; this variant is reported under the same test.] KRAS Biochemical Assay—BODIPY-GDP Exchange TR-FRET.
Biochemical compound potencies were assessed by evaluating inhibition of SOS1-mediated nucleotide exchange in KRAS G12D. The SOS1-promoted exchange of fluorescently-labeled GDP (BOPIDY-GDP) was monitored by time-resolved fluorescence resonance energy transfer (TR-FRET). Compounds solubilized in DMSO were dispensed as concentration series into 384-well white assay plates. […] The reaction was initiated with the addition of 5 μL of 3 nM recombinant human SOS1 and 300 nM BODIPY-GDP in assay buffer. After a 60-minute incubation, the fluorescence was measured with excitation at 337 nm and emission at 490 and 520 nm. The TR-FRET ratio was determined as the fluorescence at 520 nm divided by the fluorescence at 490 nm multiplied by 10,000. […] The normalized TR-FRET results were plotted against compound concentration, and the data fit to a 4-parameter Hill equation to determine the IC50 values.

[3] = target: recombinant human mutant KRas G12V (SOS1-mediated nucleotide exchange) (Homo sapiens (Human), UniProt P01116, G12V); assay: KRAS biochemical assay, BODIPY-GDP exchange TR-FRET (G12V-GDP HTRF)
[4] = tested on: H1975 cells; assay: H1975 CTG proliferation assay; type: cell-based
[5] = tested on: HPAC cells; assay: HPAC 3D proliferation assay (CellTiter-Glo); type: cell-based; conditions: 3D culture, 7 days, read-out: HPAC CTG IC50
Method: (§1) SW620 and HPAC 3D proliferation assays.
(§2) Compound potencies were assessed in proliferation assays conducted with SW620 and HPAC cell lines grown in 3D cultures. Cells were seeded into 96- or 384-well ultra-low attachment plates at 3000 or 1000 cells/well, respectively, in culture medium (RPMI-1640, 10% FBS, 2 mM L-glutamine). The plated cells were centrifuged briefly, allowed to rest for 30 minutes under ambient conditions, and cultured overnight at 37° C./5% CO2 to initiate the formation of spheroids. Compound dilutions were prepared across a range of concentrations in DMSO and added to the appropriate wells of the assay plates with a 333-fold dilution into the culture medium. The plates were further incubated for 7 days. The quantity of viable cells was assessed using CellTiter-Glo 3D Cell Viability Assay (Promega). The detection reagent penetrates the spheroids and lyses the cells. The released ATP that was detected with luciferase and a luciferase substrate to generate a luminescent readout. […] The data points were fit to a 4-parameter logistic equation to determine IC50 values.

[6] = tested on: SW620 cells; assay: SW620 3D proliferation assay (CellTiter-Glo); type: cell-based; conditions: SW620, 3D culture, 7 days, read-out: SW620 CTG IC50
Method: as §1, §2

[7] = Homo sapiens, SW-620, SW620, PERK
[8] = Homo sapiens, NCI-H1975, H1975, CTG

recombinant human KRAS wild type (SOS1-mediated nucleotide exchange), sequence (P01116-2 other isoform, or with tags, fused parts or gaps): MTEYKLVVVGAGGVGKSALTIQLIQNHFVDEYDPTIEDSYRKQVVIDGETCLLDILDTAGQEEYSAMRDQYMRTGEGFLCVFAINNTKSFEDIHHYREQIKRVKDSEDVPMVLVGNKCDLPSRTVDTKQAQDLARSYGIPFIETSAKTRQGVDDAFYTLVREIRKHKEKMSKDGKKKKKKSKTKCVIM
recombinant human mutant KRas G12V (SOS1-mediated nucleotide exchange), sequence (P01116-2 other isoform, or with tags, fused parts or gaps G12V): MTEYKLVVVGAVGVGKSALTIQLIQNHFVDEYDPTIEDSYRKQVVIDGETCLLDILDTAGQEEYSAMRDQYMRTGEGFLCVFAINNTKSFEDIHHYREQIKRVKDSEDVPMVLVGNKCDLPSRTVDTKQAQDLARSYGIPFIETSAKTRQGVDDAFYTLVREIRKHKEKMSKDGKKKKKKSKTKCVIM

IC50 [1, 7] | IC50 [2] | IC50 [3] | IC50 [4, 8] | IC50 ([6]; Homo sapiens, SW-620, 168 h) | IC50 ([1]; SW620, PERK) | IC50 ([4]; H1975, CTG) | IC50 [6] | SMILES | IC50 ([5]; Homo sapiens, 168 h) | IC50 [5]
5.44 nM | 0.33 nM | 0.24 nM | 5.54 nM | 13 nM | – | – | – | C#Cc1cccc2cncc(-c3nc4c5c(nc(OC[C@@]67CCCN6C[C@H](F)C7)nc5c3F)N([C@H](C)c3cccnc3N)CCO4)c12 [Example 18, 3-((R)-1-(5-(5-ethynylisoquinolin-4-yl)-4-fluoro-2-(((2R,7aS)-2-fluorotetrahydro-1H-pyrrolizin-7a(5H)-yl)methoxy)-8,9-dihydro-10H-7-oxa-1,3,6,10-tetraazacyclohepta[de]naphthalen-10-yl)ethyl)pyridin-2-amine] | 56.1 nM | –
233 nM | 3.43 nM | 0.45 nM | 93.2 nM | 393 nM | – | – | – | C[C@H](c1cccnc1N)N1CCOc2nc(-c3nc(N)cc4ccccc34)c(F)c3nc(OC[C@@]45CCCN4C[C@H](F)C5)nc1c23 [Example 618, 1-(10-((R)-1-(2-aminopyridin-3-yl)ethyl)-4-fluoro-2-(((2R,7aS)-2-fluorotetrahydro-1H-pyrrolizin-7a(5H)-yl)methoxy)-9,10-dihydro-8H-7-oxa-1,3,6,10-tetraazacyclohepta[de]naphthalen-5-yl)isoquinolin-3-amine] | 1050 nM | –
10.5 nM | 0.67 nM | 0.16 nM | 262 nM | 27.1 nM | – | – | – | Cc1nc(N)cc(-c2nc3c4c(nc(OC[C@@]56CCCN5C[C@H](F)C6)nc4c2Cl)N([C@H](C)c2cccnc2N)CCO3)c1C(F)(F)F [Example 626, 4-(10-((R)-1-(2-aminopyridin-3-yl)ethyl)-4-chloro-2-(((2R,7aS)-2-fluorotetrahydro-1H-pyrrolizin-7a(5H)-yl)methoxy)-9,10-dihydro-8H-7-oxa-1,3,6,10-tetraazacyclohepta[de]naphthalen-5-yl)-6-methyl-5-(trifluoromethyl)pyridin-2-amine] | 160 nM | –
14 nM | 0.826 nM | 0.33 nM | 471 nM | 14.6 nM | – | – | – | Cc1nc(N)nc(-c2nc3c4c(nc(OC[C@@]56CCCN5C[C@H](F)C6)nc4c2F)N([C@H](C)c2cccnc2N)CCO3)c1C(F)(F)F [Example 628, 4-(10-((R)-1-(2-aminopyridin-3-yl)ethyl)-4-fluoro-2-(((2R,7aS)-2-fluorotetrahydro-1H-pyrrolizin-7a(5H)-yl)methoxy)-9,10-dihydro-8H-7-oxa-1,3,6,10-tetraazacyclohepta[de]naphthalen-5-yl)-6-methyl-5-(trifluoromethyl)pyrimidin-2-amine] | 331 nM | –
– | 2.93 nM | 1.9 nM | – | – | 33.1 nM | 180 nM | 6.87 nM | Cc1cc(N)c(Cl)c(-c2nc3c4c(nc(OC[C@@]56CCCN5C[C@H](F)C6)nc4c2F)N([C@H](C)c2cccnc2N)CCO3)c1C(F)(F)F (single isomer, unassigned) [Example 21a] | – | 103 nM
0.66 nM | 0.15 nM | 0.09 nM | 2.59 nM | 1.64 nM | – | – | – | C#Cc1cccc2cc(N)cc(-c3nc4c5c(nc(OC[C@@]67CCCN6C[C@H](F)C7)nc5c3F)N([C@H](C)c3nccnc3N)CCO4)c12 [Example 29, 3-((R)-1-(5-(3-Amino-8-ethynyinaphthalen-1-yl)-4-fluoro-2-(((2R,7aS)-2-fluorotetrahydro-1H-pyrrolizin-7a(5H)-yl)methoxy)-8,9-dihydro-10H-7-oxa-1,3,6,10-tetraazacyclohepta[de]naphthalen-10-yl)ethyl)pyrazin-2-amine] | 4.51 nM | –

The remaining lines, values behind:

SMILES | IC50 [1, 7] | IC50 [2] | IC50 [3] | IC50 [4, 8] | IC50 ([6]; Homo sapiens, SW-620, 168 h) | IC50 ([1]; SW620, PERK) | IC50 ([4]; H1975, CTG) | IC50 [6] | IC50 ([5]; Homo sapiens, 168 h) | IC50 [5]
Cc1nc(N)cc(-c2nc3c4c(nc(OC[C@@]56CCN5C[C@]5(CC5(F)F)C6)nc4c2F)N([C@H](C)c2cccnc2N)CCO3)c1C(F)(F)F [Example 605] | 11.9 nM | 0.19 nM | 0.14 nM | 4 nM | 11.3 nM | – | – | – | 94 nM | –
Cc1c(F)c(N)nc(-c2nc3c4c(nc(OC[C@@]56CCCN5C[C@H](F)C6)nc4c2F)N([C@H](C)c2cncnc2N)CCO3)c1C(F)(F)F [Example 613, 5-((R)-1-(5-(6-amino-5-fluoro-4-methyl-3-(trifluoromethyl)pyridin-2-yl)-4-fluoro-2-(((2R,7aS)-2-fluorotetrahydro-1H-pyrrolizin-7a(5H)-yl)methoxy)-8,9-dihydro-10H-7-oxa-1,3,6,10-tetraazacyclohepta[de]naphthalen-10-yl)ethyl)pyrimidin-4-amine] | 146 nM | 1.45 nM | 0.24 nM | 160 nM | 290 nM | – | – | – | 1520 nM | –
Cc1c(F)c(N)nc(-c2nc3c4c(nc(OC[C@@]56CCCN5C[C@H](F)C6)nc4c2F)N([C@H](C)c2nccnc2N)CCO3)c1C(F)(F)F [Example 630, 3-((R)-1-(5-(6-amino-5-fluoro-4-methyl-3-(trifluoromethyl)pyridin-2-yl)-4-fluoro-2-(((2R,7aS)-2-fluorotetrahydro-1H-pyrrolizin-7a(5H)-yl)methoxy)-8,9-dihydro-10H-7-oxa-1,3,6,10-tetraazacyclohepta[de]naphthalen-10-yl)ethyl)pyrazin-2-amine] | 21.2 nM | 2 nM | 0.32 nM | 134 nM | 28.8 nM | – | – | – | 208 nM | –
Cc1c(F)c(N)nc(-c2nc3c4c(nc(OC[C@@]56CCCN5C[C@]5(CC5(F)F)C6)nc4c2F)N([C@H](C)c2cccnc2N)CCO3)c1C(F)(F)F [Example 614] | 2.42 nM | 0.16 nM | 0.12 nM | 1960 nM | 1.75 nM | – | – | – | 11.5 nM | –
Cc1c(F)c(N)cc(-c2nc3c4c(nc(OC[C@@]56CCCN5C[C@H](F)C6)nc4c2F)N([C@H](C)c2cncnc2N)CCO3)c1C(F)(F)F [Example 617, 5-((R)-1-(5-(5-amino-4-fluoro-3-methyl-2-(trifluoromethyl)phenyl)-4-fluoro-2-(((2R,7aS)-2-fluorotetrahydro-1H-pyrrolizin-7a(5H)-yl)methoxy)-8,9-dihydro-10H-7-oxa-1,3,6,10-tetraazacyclohepta[de]naphthalen-10-yl)ethyl)pyrimidin-4-amine] | 28.8 nM | 0.31 nM | 0.11 nM | 24.4 nM | 38 nM | – | – | – | 239 nM | –
Cc1c(F)c(N)nc(-c2nc3c4c(nc(OC[C@@]56CCCN5C[C@H](F)C6)nc4c2F)N([C@H](C)c2cc(F)cnc2N)CCO3)c1C(F)(F)F [Example 631, 6-(10-((R)-1-(2-amino-5-fluoropyridin-3-yl)ethyl)-4-fluoro-2-(((2R,7aS)-2-fluorotetrahydro-1H-pyrrolizin-7a(5H)-yl)methoxy)-9,10-dihydro-8H-7-oxa-1,3,6,10-tetraazacyclohepta[de]naphthalen-5-yl)-3-fluoro-4-methyl-5-(trifluoromethyl)pyridin-2-amine] | 16.5 nM | 0.741 nM | 0.21 nM | 113 nM | 47.3 nM | – | – | – | 110 nM | –
Cc1c(F)c(N)nc(-c2nc3c4c(nc(OC[C@@]56CCCN5C[C@H](F)C6)nc4c2Cl)N([C@H](C)c2cccnc2N)CCO3)c1C(F)(F)F [Example 620, 6-(10-((R)-1-(2-aminopyridin-3-yl)ethyl)-4-chloro-2-(((2R,7aS)-2-fluorotetrahydro-1H-pyrrolizin-7a(5H)-yl)methoxy)-9,10-dihydro-8H-7-oxa-1,3,6,10-tetraazacyclohepta[de]naphthalen-5-yl)-3-fluoro-4-methyl-5-(trifluoromethyl)pyridin-2-amine] | 4.29 nM | 0.748 nM | 0.24 nM | 132 nM | 19.2 nM | – | – | – | 89.8 nM | –
